Experiment [1] relates to Human breast cancer cell line T-47D. Put plainly: Caspase cascade activation assay (N-(Ac-DEVD)-N'-ethoxycarbonyl-R110 fluorogenic substrate) in T-47D cells. The class given is cell-based. The note with it: for Caspase activity (Ratio) T-47D: 24 h incubation with compound, ratio of net RFU (T=3 h) of test compound to control. An outline of the steps: (§1)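 Cells were exposed for 24 h at 37 °C to test compound at 0.016–1 μM final. Lysed with lysolecithin buffer (pH 7.2, DTT) containing 20 μM Ac-DEVD-R110 substrate, and fluorescence (ex 485/em 530 nm) read at 0 and 3 h at room temperature. EC50 from sigmoidal fit of net RFU ratio to control.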

Experiment [2] relates to Human breast cancer cell line ZR-75-1. Description: Caspase cascade activation assay (N-(Ac-DEVD)-N'-ethoxycarbonyl-R110 fluorogenic substrate) in ZR-75-1 cells. The class given is cell-based. The settings on record: for Caspase activity (Ratio) ZR-75-1: 24 h incubation with compound, ratio of net RFU (T=3 h) of test compound to control. An outline of the steps: as §1
Setting [3] is: 24 h incubation, sigmoidal dose-response, read-out: Caspase potency EC50 (nM) T-47D.
Setting [4] is: ZR-75-1 cells, 24 h incubation, sigmoidal dose-response, read-out: Caspase potency EC50 (nM) ZR-75-1.
The mark [5] stands for this setting: Homo sapiens, T47D, 24 h, 24 h incubation, sigmoidal dose-response, read-out: Caspase potency EC50 (nM) T-47D.
[6] abbreviates: Homo sapiens, ZR-75-1, 24 h, ZR-75-1 cells, 24 h incubation, sigmoidal dose-response, read-out: Caspase potency EC50 (nM) ZR-75-1.
[7] abbreviates: ZR-75-1 cells, additional compounds, Table II.

Where two headings read alike, the source gives them in different places.

In the case of `COc1cc(C2C(C#N)=C(N)Oc3cc(N4CCNCC4)ccc32)cc(Br)c1OC` (stereo not drawn) [Example 66B, 2-Amino-3-cyano-7-piperazine-4-(3-bromo-4,5-dimethoxyphenyl)-4H-chromene], in experiment [1], the “Caspase activity (Ratio) T-47D” value is 5.7. In addition, the EC50 (as a rule, the concentration at which the effect is half-maximal) in experiment [1] (setting [3]) stood at 2910 nM; in experiment [2] (setting [4]), 1470 nM. Further, the “Caspase activity (Ratio) ZR-75-1” value in experiment [2] (ZR-75-1 cells) worked out at 6.8.
Take `COc1cc(C2C(C#N)=C(N)Oc3c2ccc(N)c3C)cc(Br)c1OC` (stereo not drawn) [Example 2H, 2-Amino-3-cyano-7-amino-8-methyl-4-(3-bromo-4,5-dimethoxyphenyl)-4H-chromene]: the “Caspase activity (Ratio) T-47D” value in experiment [1] was found to be 5.5. Further, the EC50 was 29 nM in experiment [1] (setting [5]) and 16 nM in experiment [2] (setting [6]). For the same compound, in experiment [2] (ZR-75-1 cells), the “Caspase activity (Ratio) ZR-75-1” value was found to be 3.9.
As for `N#CC1=C(N)OC2C3=CC=NC3=CC=C2C1c1cccc(Cl)c1` (stereo not drawn) [Example 2G, 2-Amino-3-cyano-4-(3-chlorophenyl)-4H-indolo[4,5-b]pyran], the “Caspase activity (Ratio) T-47D” value in experiment [1] worked out at 5.6. Besides, the EC50 came out at 56 nM in experiment [1] (setting [5]) and 25 nM in experiment [2] (setting [6]). In addition, the “Caspase activity (Ratio) ZR-75-1” value in experiment [2] (ZR-75-1 cells) is 4.5.
Consider `N#CC1=C(N)OC2C(=CC=C3C=CN=C32)C1c1cccc(C#N)c1` (stereo not drawn) [Example 53, 2-Amino-3-cyano-4-(3-cyano-phenyl)-4H-indolo[7,6-b]pyran], for which the “Caspase activity (Ratio) T-47D” value in experiment [1] is recorded as 10.1. The EC50 in experiment [1] (setting [5]) amounted to 79.7 nM; in experiment [2] (setting [6]), 26.4 nM. Besides, the “Caspase activity (Ratio) ZR-75-1” value in experiment [2] (ZR-75-1 cells) is reported as 7.0.
The like results for `COc1cccc(C2C(C#N)=C(N)Sc3cc(OC)ccc32)c1` (stereo not drawn) [Example 70, 2-Amino-3-cyano-7-methoxy-4-(3-methoxyphenyl)-4H-thiochromene] were, in that order, 9.1, 90.7 nM, 45.3 nM and 6.6.
As for `COc1cc(C2C(C#N)=C(N)Oc3cc(N)ccc32)cc(OC)c1OC` (stereo not drawn) [2,7-Diamino-3-cyano-4-(3,4,5-trimethoxyphenyl)-4H-chromene], the EC50 in experiment [1] (Homo sapiens, T47D, additional compounds, Table II, read-out: Caspase potency EC50 (nM) T-47D, Table II) worked out at 30 nM; in experiment [2] (Homo sapiens, ZR-75-1, ZR-75-1 cells, additional compounds, Table II, read-out: Caspase potency EC50 (nM) ZR-75-1, Table II), 15 nM. Besides, the “Caspase activity (Ratio) T-47D, Table II” value in experiment [1] (additional compounds, Table II) is recorded as 4.2. Besides, in experiment [2] (setting [7]), the “Caspase activity (Ratio) ZR-75-1, Table II” value is listed as 3.5.
On to `COc1cc(C2C(C#N)=C(N)Oc3c2ccc2[nH]cnc32)cc(Br)c1OC` (stereo not drawn) [Example 64, 2-Amino-3-cyano-4-(3-bromo-4,5-dimethoxy-phenyl)-4H-imidazo[4,5-h]chromene], for which the “Caspase activity (Ratio) T-47D” value in experiment [1] was 8.0. Further, the EC50 in experiment [1] (setting [3]) is 28.8 nM; in experiment [2] (setting [4]), 13.2 nM. Also, the “Caspase activity (Ratio) ZR-75-1” value in experiment [2] (ZR-75-1 cells) is reported as 4.8.
For the compound `N#CC1=C(N)OC2C3=CC=NC3=CC=C2C1c1cccc(F)c1` (stereo not drawn) [Example 2L, 2-Amino-3-cyano-4-(3-fluorophenyl)-4H-indolo[4,5-b]pyran], the “Caspase activity (Ratio) T-47D” value in experiment [1] worked out at 4.5. Moreover, the EC50 in experiment [1] (setting [5]) amounted to 63 nM; in experiment [2] (setting [6]), 41 nM. The “Caspase activity (Ratio) ZR-75-1” value in experiment [2] (ZR-75-1 cells) was 7.4.
For `COc1cc(C2C(C#N)=C(N)Oc3cc(Br)ccc32)cc(Br)c1OC` (stereo not drawn) [Example 62, 2-Amino-7-bromo-4-(3-bromo-4,5-dimethoxy-phenyl)-3-cyano-4H-chromene], in experiment [1], the “Caspase activity (Ratio) T-47D” value is 6.6. The EC50 was found to be 144 nM in experiment [1] (setting [5]) and 75.3 nM in experiment [2] (setting [6]). In experiment [2] (ZR-75-1 cells), the “Caspase activity (Ratio) ZR-75-1” value stood at 6.0.
On the same counts, the results for `Cc1cncc(C2C3=CC=C4C=CN=C4C3OC(N)=C2C#N)n1` (stereo not drawn) [Example 61, 2-Amino-3-cyano-4-(6-methyl-pyrazin-2-yl)-4H-indolo[7,6-b]pyran] are 4.1, 2900 nM, 1630 nM and 7.0.
`COc1cccc(C2C(C#N)=C(N)Oc3c2ccc(N)c3N)c1` (stereo not drawn) [Example 44, 3-Cyano-2,7,8-triamino-4-(3-methoxyphenyl)-4H-chromene]: the “Caspase activity (Ratio) T-47D” value in experiment [1] came to 7.0. Further, the EC50 was 256 nM in experiment [1] (setting [5]) and 138 nM in experiment [2] (setting [6]). In addition, in experiment [2] (ZR-75-1 cells), the “Caspase activity (Ratio) ZR-75-1” value amounted to 9.6.
The like results for `CCNc1ccc2c(c1)OC(N)=C(C#N)C2c1cccc(Br)c1` (stereo not drawn) [Example 7, 2-Amino-3-cyano-7-ethylamino-4-(3-bromophenyl)-4H-chromene] were, in that order, 5.4, 108 nM, 53 nM and 10.7.
On the same counts, the results for `COc1ccc2c(c1)OC(N)=C(C#N)C2c1cc(F)cc(F)c1` (stereo not drawn) [Example 2J, 2-Amino-3-cyano-7-methoxy-4-(3,5-difluorophenyl)-4H-chromene] are 5.0, 34 nM, 21 nM and 7.4.
On the same counts, the results for `COc1ccc2c(c1)OC(N)=C(C#N)C2c1cncc(Br)c1` (stereo not drawn) [Example 33, 2-Amino-3-cyano-4-(5-bromo-3-pyridyl)-7-methoxy-4H-chromene] are 7.0, 7 nM, 7 nM and 10.4.
Regarding `COc1cc(C2C(C#N)=C(N)Oc3c2ccc2[nH]c(=O)[nH]c32)cc(Br)c1OC` (stereo not drawn) [Example 80, 2-Amino-3-cyano-4-(3-bromo-4,5-dimethoxy-phenyl)-8-oxo-4,7,8,9-tetrahydroimidazo[4,5-h]chromene], in experiment [1], the “Caspase activity (Ratio) T-47D” value was found to be 8.8. For the same compound, the figures for the EC50 in experiment [1] (setting [3]) and in experiment [2] (setting [4]) were 50.5 nM and 21.5 nM, respectively. Further, the “Caspase activity (Ratio) ZR-75-1” value in experiment [2] (ZR-75-1 cells) was found to be 7.5.
On to `COc1cccc(C2C3=CC=C4C=CN=C4C3OC(N)=C2C#N)c1` (stereo not drawn) [Example 43, 2-Amino-3-cyano-4-(3-methoxyphenyl)-4H-indolo[7,6-b]pyran], for which, in experiment [1], the “Caspase activity (Ratio) T-47D” value was determined as 6.5. Also, the EC50 in experiment [1] (setting [5]) was 143 nM; in experiment [2] (setting [6]), 81.9 nM. Moreover, in experiment [2] (ZR-75-1 cells), the “Caspase activity (Ratio) ZR-75-1” value was 5.9.
On the same counts, the results for `CCNc1ccc2c(c1)OC(N)=C(C#N)C2c1cncc(C)c1` (stereo not drawn) [Example 31, 2-Amino-3-cyano-7-ethylamino-4-(5-methyl-3-pyridyl)-4H-chromene] are 7.9, 27 nM, 12 nM and 11.0.
Regarding `CCNc1ccc2c(c1)OC(N)=C(C#N)C2c1cccc(OC)c1` (stereo not drawn) [Example 15, 2-Amino-3-cyano-7-ethylamino-4-(3-methoxyphenyl)-4H-chromene], the “Caspase activity (Ratio) T-47D” value in experiment [1] is reported as 5.9. In addition, the EC50 came to 7 nM in experiment [1] (setting [5]) and 4 nM in experiment [2] (setting [6]). For the same compound, the “Caspase activity (Ratio) ZR-75-1” value in experiment [2] (ZR-75-1 cells) worked out at 6.3.
Take “2-Amino-3-cyano-7-methoxy-4-(2,4-dimethoxypyrimidinyl)-4H-chromene [Example 27]”: in experiment [1], the “Caspase activity (Ratio) T-47D” value is less than 2. The EC50 in experiment [1] (setting [3]) and in experiment [2] (setting [4]) was more than 10000 nM in each case. Moreover, the “Caspase activity (Ratio) ZR-75-1” value in experiment [2] (ZR-75-1 cells) is less than 2.
In the case of `CCC(C)C(=O)Nc1ccc2c(c1)OC(N)=C(C#N)C2c1cc(Br)c(OC)c(OC)c1` (stereo not drawn) [2-Amino-3-cyano-7-(2-methylbutanoylamino)-4-(3-bromo-4,5-dimethoxyphenyl)-4H-chromene], in experiment [1] (additional compounds, Table II), the “Caspase activity (Ratio) T-47D, Table II” value was “Inactive” and the “Caspase potency EC50 (nM) T-47D, Table II” value is given as “Inactive”. Also, in experiment [2] (setting [7]), the “Caspase activity (Ratio) ZR-75-1, Table II” value is reported as “Inactive” and the “Caspase potency EC50 (nM) ZR-75-1, Table II” value is given as “Inactive”.
`COc1cc(OC)cc(C2C3=CC=C4C=CN=C4C3OC(N)=C2C#N)c1` (stereo not drawn) [Example 52, 2-Amino-3-cyano-4-(3,5-dimethoxyphenyl)-4H-indolo[7,6-b]pyran]: the “Caspase activity (Ratio) T-47D” value in experiment [1] was determined as 11.8. The EC50 in experiment [1] (setting [5]) came to 26 nM; in experiment [2] (setting [6]), 22.7 nM. The “Caspase activity (Ratio) ZR-75-1” value in experiment [2] (ZR-75-1 cells) is recorded as 9.9.

Source of the values: US20060035925A1, “SUBSTITUTED 4H-CHROMENES AND ANALOGS AS ACTIVATORS OF CASPASES AND INDUCERS OF APOPTOSIS AND THE USE THEREOF” (Cytovia, Inc., priority 1999, published 2006).
